The results in this text go back to ChEMBL document CHEMBL1201862, “PubChem BioAssay data set” (2004).

Test systems include CAKI-1; COLO 205; EKVX; HCC 2998; HCT-116; HL-60; HOP-62; LOX IMVI; M14; Malme-3M; NCI-H226; NCI-H522; OVCAR-5; RPMI-8226; SK-MEL-28; SK-MEL-5; SK-OV-3; SW-620; TK-10; UO-31.
Experiment in all cases: DTP human tumour cell line panel, 48 h

SMILES strings stand for the structures.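 The compound was tested at five concentrations on cells cultured in 96-well plates, with a 48-hour exposure period. GI50 is the concentration that inhibits growth by half.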 Activity calls are given as the source filed them. Cut-off read from the data, not from the text of the source: active = GI50 up to about 1.1 µM and inactive = higher. Some results are limits rather than exact numbers.

`COc1cccc2c(Nc3ccc(S(=O)(=O)Nc4ncccn4)cc3)c3ccc([N+](=O)[O-])cc3nc12`: the GI50 in the experiment with CAKI-1 is 4.8 µM (inactive); in the experiment on COLO 205, 60.7 µM (inactive); with EKVX, > 100 µM (inactive); in the experiment on HCC 2998, 67 µM (inactive); with HCT-116, 22.4 µM (inactive); with HL-60 it was 10.4 µM (inactive). The GI50 in the experiment with HOP-62 was 85.3 µM (inactive); with LOX IMVI, 30.6 µM (inactive); in the experiment with M14 it was 45.1 µM (inactive); with Malme-3M it was 12.9 µM (inactive); with NCI-H226, 38.7 µM (inactive); in the experiment with NCI-H522 it was 66.1 µM (inactive). The GI50 is > 100 µM (inactive) with OVCAR-5; 8.67 µM (inactive) in the experiment on RPMI-8226; > 100 µM (inactive) with SK-MEL-28; 54.5 µM (inactive) with SK-MEL-5; 54.6 µM (inactive) in the experiment on SK-OV-3; 63.8 µM (inactive) in the experiment with SW-620. Besides, the GI50 in the experiment with TK-10 was > 100 µM (inactive); in the experiment on UO-31, 5.66 µM (inactive).

Take `COc1ccc(Cc2nn(C3OC(COC(C)=O)C(OC(C)=O)C(OC(C)=O)C3OC(C)=O)c(=S)n(-c3ccc(OC)cc3)c2=O)cc1` (configuration not stated): the GI50 in the experiment with CAKI-1 was > 100 µM (inactive); with COLO 205, > 100 µM (inactive); with EKVX, > 54.3 µM (inactive); in the experiment with HCC 2998, > 100 µM (inactive); in the experiment with HCT-116 it was > 100 µM (inactive); in the experiment with HL-60, > 77.8 µM (inactive). Also, the GI50 in the experiment with HOP-62, in the experiment with LOX IMVI, with Malme-3M, in the experiment with NCI-H226, in the experiment with NCI-H522 and in the experiment on OVCAR-5 was > 100 µM (inactive) each time. In addition, the GI50 with RPMI-8226, with SK-MEL-28, in the experiment with SK-MEL-5, in the experiment with SK-OV-3, with SW-620 and in the experiment on UO-31 was > 100 µM (inactive) throughout.

Regarding `CC(C)C(=O)/C=C/c1c(Cl)cccc1Cl`, the GI50 is 3.47 µM (inactive) in the experiment on CAKI-1; 10.4 µM (inactive) with COLO 205; 13.3 µM (inactive) with EKVX; 15.6 µM (inactive) in the experiment on HCC 2998; 1.64 µM (inactive) in the experiment with HCT-116; 5.36 µM (inactive) in the experiment on HL-60. Besides, the GI50 is 5.83 µM (inactive) in the experiment on HOP-62; 2.47 µM (inactive) in the experiment with LOX IMVI; 2.61 µM (inactive) in the experiment with M14; 4.45 µM (inactive) in the experiment with Malme-3M; 2.33 µM (inactive) in the experiment with NCI-H226; 1.19 µM (inactive) with NCI-H522. Moreover, the GI50 in the experiment with OVCAR-5 was 3.21 µM (inactive); with RPMI-8226, > 100 µM (inactive); in the experiment with SK-MEL-28, 5.81 µM (inactive); in the experiment with SK-MEL-5, 4.95 µM (inactive); in the experiment with SK-OV-3 it was 3.28 µM (inactive); in the experiment with SW-620, 2.98 µM (inactive). Further, the GI50 with TK-10 was 12.1 µM (inactive); in the experiment with UO-31, 4.3 µM (inactive).

Take `O=C1C(Br)=CC2([N+](=O)[O-])CCNC3=C(C4=NCCc5c[nH]c(c54)C3=O)C2=C1Br` (configuration not stated): the GI50 with CAKI-1 is 1.49 µM (inactive); in the experiment with COLO 205 it was 0.0178 µM (active); in the experiment with EKVX, 2.33 µM (inactive); with HCC 2998, 2.62 µM (inactive); in the experiment with HCT-116, 0.317 µM (active); in the experiment on HL-60, 0.206 µM (active). Moreover, the GI50 with HOP-62 was 3.58 µM (inactive); with LOX IMVI, 1.56 µM (inactive); in the experiment on NCI-H226, 2.38 µM (inactive); with NCI-H522 it was 0.1 µM (active); with OVCAR-5, 1.1 µM (active); in the experiment with RPMI-8226, 0.159 µM (active). For the same compound, the GI50 was 3.26 µM (inactive) with SK-MEL-28; 0.589 µM (active) in the experiment with SK-MEL-5; 3.13 µM (inactive) in the experiment with SK-OV-3; 0.0497 µM (active) in the experiment with SW-620; 9.59 µM (inactive) with UO-31.

Consider `CCOCNC(=O)N(COCC)COCC`, for which the GI50 with CAKI-1, in the experiment with COLO 205, in the experiment with EKVX, in the experiment with HCC 2998, with HCT-116 and with HL-60 was > 100 µM (inactive) each time. In addition, the GI50 in the experiment with HOP-62, in the experiment on LOX IMVI, with M14, with Malme-3M, in the experiment on NCI-H226 and with NCI-H522 was > 100 µM (inactive) in each case. The GI50 in the experiment with OVCAR-5, with RPMI-8226, with SK-MEL-28, in the experiment on SK-OV-3, in the experiment on SW-620 and in the experiment on UO-31 was > 100 µM (inactive) throughout.

Regarding `Cc1c2cnccc2c(C)c2c1c1ccccc1n2CC1CO1` (configuration not stated), the GI50 in the experiment on CAKI-1 is 1.34 µM (inactive); with COLO 205, 1.16 µM (inactive); with EKVX, 0.687 µM (active); in the experiment with HCC 2998 it was 1.18 µM (inactive); with HCT-116, 0.327 µM (active); with HL-60 it was 0.0283 µM (active). Further, the GI50 is 1.64 µM (inactive) with HOP-62; 0.393 µM (active) in the experiment with LOX IMVI; 1.75 µM (inactive) in the experiment with Malme-3M; 1.76 µM (inactive) in the experiment with NCI-H226; 1.07 µM (active) in the experiment on NCI-H522; 2.05 µM (inactive) in the experiment with OVCAR-5. Further, the GI50 is 0.883 µM (active) with RPMI-8226; 1.71 µM (inactive) with SK-MEL-28; 1.1 µM (active) with SK-MEL-5; 2.53 µM (inactive) in the experiment with SK-OV-3; 0.345 µM (active) with SW-620; 1.42 µM (inactive) in the experiment with UO-31.

`CN1CCC(C(O)(c2ccccc2)c2ccc(Br)cc2)CC1` (configuration not stated): the GI50 was 14 µM (inactive) in the experiment with CAKI-1; 15.3 µM (inactive) in the experiment on COLO 205; 28.8 µM (inactive) in the experiment with EKVX; 12.6 µM (inactive) in the experiment on HCC 2998; 18.8 µM (inactive) in the experiment on HCT-116; 20.4 µM (inactive) with HL-60. The GI50 was 24.8 µM (inactive) in the experiment on HOP-62; 15.8 µM (inactive) with LOX IMVI; 15.3 µM (inactive) in the experiment on M14; 14.5 µM (inactive) in the experiment with Malme-3M; 21.8 µM (inactive) with NCI-H226; 15.5 µM (inactive) in the experiment with NCI-H522. The GI50 in the experiment with OVCAR-5 is 21.2 µM (inactive); in the experiment with RPMI-8226, 17.3 µM (inactive); in the experiment with SK-MEL-28 it was 16.7 µM (inactive); in the experiment with SK-MEL-5, 14.8 µM (inactive); in the experiment with SK-OV-3, 32.7 µM (inactive); in the experiment with SW-620, 21.4 µM (inactive). The GI50 in the experiment on TK-10 is 25.9 µM (inactive); in the experiment on UO-31, 12.5 µM (inactive).

With `CCOC(=O)C(Cc1ccc(N=NN(C)C)cc1)NC(=O)CC1c2ccccc2-c2ccccc21` (configuration not stated), the GI50 was > 100 µM (inactive) with CAKI-1; 92.7 µM (inactive) in the experiment with COLO 205; > 100 µM (inactive) in the experiment on EKVX; > 100 µM (inactive) in the experiment on HCC 2998; > 100 µM (inactive) in the experiment with HCT-116; > 100 µM (inactive) with HL-60. The GI50 with HOP-62 is > 100 µM (inactive); in the experiment with LOX IMVI, 85.3 µM (inactive); in the experiment with M14, > 100 µM (inactive); with Malme-3M, > 100 µM (inactive); in the experiment with NCI-H226, > 100 µM (inactive); with NCI-H522 it was 56.2 µM (inactive). The GI50 in the experiment on OVCAR-5 is > 100 µM (inactive); with RPMI-8226 it was 41.6 µM (inactive); in the experiment with SK-MEL-28, > 100 µM (inactive); with SK-MEL-5, 57 µM (inactive); in the experiment on SK-OV-3, > 100 µM (inactive); in the experiment on SW-620 it was > 100 µM (inactive). Further, the GI50 in the experiment with TK-10 and with UO-31 was > 100 µM (inactive) throughout.

For the compound `COC(=O)c1cccc(N[C@@H]2c3cc4c(cc3C(c3cc(OC)c(O)c(OC)c3)[C@H]3C(=O)OCC32)OCO4)c1` (some centres not stated), the 50% growth inhibitory concentration (GI50) with CAKI-1 was 0.321 µM (active); in the experiment with COLO 205, 1.33 µM (inactive); in the experiment on EKVX, 4.03 µM (inactive); with HCC 2998 it was 2.19 µM (inactive); in the experiment with HCT-116, 0.682 µM (active); in the experiment with HL-60, 0.149 µM (active). For the same compound, the 50% growth inhibitory concentration (GI50) in the experiment on HOP-62 is 0.239 µM (active); with LOX IMVI, 0.859 µM (active); in the experiment on Malme-3M it was 2.33 µM (inactive); in the experiment on NCI-H226, 0.662 µM (active); with NCI-H522, 1.4 µM (inactive); with OVCAR-5, 6.67 µM (inactive). Further, the GI50 is 1.37 µM (inactive) in the experiment with RPMI-8226; 2.67 µM (inactive) in the experiment on SK-MEL-28; 1.11 µM (active) in the experiment on SK-MEL-5; 2.86 µM (inactive) with SK-OV-3; 1.97 µM (inactive) with SW-620; 0.718 µM (active) in the experiment with UO-31.

Take `CC(C)[C@](O)(C(=O)OCC1=CCN2CC[C@@H](O)[C@@H]12)[C@H](C)O`: the GI50 in the experiment on CAKI-1, in the experiment with COLO 205, in the experiment with EKVX, with HCC 2998, in the experiment with HCT-116 and with HL-60 was > 375 µM (inactive) throughout. Moreover, the GI50 was > 335 µM (inactive) in the experiment on HOP-62; > 174 µM (inactive) in the experiment with LOX IMVI; > 375 µM (inactive) in the experiment on Malme-3M; > 375 µM (inactive) in the experiment with NCI-H226; 59.4 µM (inactive) in the experiment on NCI-H522; > 278 µM (inactive) in the experiment on OVCAR-5. Moreover, the GI50 with RPMI-8226 is > 375 µM (inactive); in the experiment on SK-MEL-28, > 375 µM (inactive); in the experiment on SK-MEL-5 it was > 80.7 µM (inactive); in the experiment on SK-OV-3, > 375 µM (inactive); in the experiment with SW-620, > 237 µM (inactive); in the experiment with UO-31, > 375 µM (inactive).
